Results taken from PMC12105006, “AI-Driven De Novo Design and Development of Nontoxic DYRK1A Inhibitors” (Journal of Medicinal Chemistry, 2025).
“Also recorded” adds a separate entry of the source. Where two headings read alike, the source gives them in different places. Values belong to the compound of their own block, whether it stands above or below them.

Legend:
PAMPA-BBB assay = type: in vitro ADME; conditions: for BBB prediction: PAMPA-BBB, porcine brain lipid, 3 h, 25 °C
Description: The brain penetration of active compounds was assessed using a parallel artificial membrane permeability assay (PAMPA). Eleven drugs with known blood–brain barrier (BBB) permeability–Hydrocortisone, testosterone, imipramine, piroxicam, promazine, clonidine, desipramine, ofloxacin, aldosterone, verapamil, and caffeine–were included in each experiment to validate the analysis.
The compounds were dissolved in a 70/30 PBS pH = 7.4 buffer/ethanol solution at a concentration that ensured appropriate absorbance values in the UV–vis light spectrum. A 5 mL volume of these solutions was filtered using PDVF membrane filters (30 mm diameter, 0.45 μ m pore size).
The acceptor 96-well microplate (MultiScreen 96-well Culture Tray clear, Merck Millipore) was filled with 200 μL of PBS/ethanol (70/30). The donor 96-well filtrate plate (Multiscreen IP Sterile Plate PDVF membrane, 0.45 μ m pore size, Merck Millipore) was coated with 4 μL of porcine brain lipid (Spectra 2000) in dodecane (20 mg mL^–1).
After 5 min, 200 μL of each compound solution were added. The donor plate was then carefully placed onto the acceptor plate to form a “sandwich,” which was left undisturbed for 3 h at 25 °C. During this time, the compounds diffused from the donor plate through the brain lipid membrane into the acceptor plate.
After incubation, the donor plate was removed. The concentrations of the compounds and commercial drugs were determined by measuring absorbance in the donor wells (before incubation) and the acceptor wells (after incubation) using a CLARIOstar microplate reader (BMG LABTECH). Each sample was analyzed at five wavelengths in four replicates and two independent experiments.
The permeability coefficient (P e) of each drug, in centimeters per second, was calculated using the following formula Pe=Vd·Vr/(Vd−Vr)·s·t·100·Vd/100·Vd−%T(Vd−Vr) %T=Vr·Ar/Ad·Vd·100 where V d and V r are the volumes of the donor and receptor solutions (0.2 cm^3), s is the membrane area (0.2642 cm^2), t is the incubation time (3 h = 10,800 s), A r is the absorbance of the receptor plate after the experiment, and A d is the absorbance in the donor compartment before incubation. The results obtained for quality control drugs were compared with permeability data from the literature. […] Compounds that correlate with reported P e values between 2 and 4 × 10^–6 cm s^–1 are classified as CNS+/–.

[1] = Oxygen radical absorbance capacity (ORAC) antioxidant assay
BV2 microglial cells = assay: MTT cell viability / toxicity in BV2 cells; type: cell-based, mouse
Description: (§1) The mouse microglial BV2 cell line was propagated using DMEM, 10% FBS, 1% streptomycin–penicillin, under humidified 5% CO2 and 95% air. On attaining semiconfluence, cells were treated with 400 ng/mL of LPS for 24 h. Some cultures were pretreated for 1 h with the different compounds at several concentrations ranging from 1 to 10 μM. After treatment, cultures were processed for cell viability and nitrite production. Experiments were performed in triplicate. BV2 cells, microglial cells derived from C57/BL6 murine. These cells were immortalized using the v-raf/v-myc carrying J2 retrovirus, resulting in a stable cell line. The cells are commercially available from https://www.cytion.com/BV2-Cells/305156.
Cell viability was determined using the MTT assay, which measures the reduction of 3-(4,5-dimethylthiazol-2-yl)-2,5-diphenyltetrazolium bromide (MTT) to formazan crystals. Briefly, the MTT solution (2 mg/mL) was added to each well and incubated at 37 °C for 2 h. After removing the culture medium, 100 μL of dimethyl sulfoxide was added to each well to dissolve the formazan. The optical density was measured at 532 nm using a microplate reader. The absorbance of the control group was considered as 100% of the cell viability.

DYRK1B = DYRK1B (Homo sapiens, UniProt Q9Y463); assay: ADP-Glo DYRK1B kinase enzyme inhibition assay; conditions: read-out: IC50 (nM) DYRK1B; ATP (10 μmol/well) and DYRKtidE (4 μmol/well) as substrate; triplicate
Chain of DYRK1B (Q9Y463 whole entry): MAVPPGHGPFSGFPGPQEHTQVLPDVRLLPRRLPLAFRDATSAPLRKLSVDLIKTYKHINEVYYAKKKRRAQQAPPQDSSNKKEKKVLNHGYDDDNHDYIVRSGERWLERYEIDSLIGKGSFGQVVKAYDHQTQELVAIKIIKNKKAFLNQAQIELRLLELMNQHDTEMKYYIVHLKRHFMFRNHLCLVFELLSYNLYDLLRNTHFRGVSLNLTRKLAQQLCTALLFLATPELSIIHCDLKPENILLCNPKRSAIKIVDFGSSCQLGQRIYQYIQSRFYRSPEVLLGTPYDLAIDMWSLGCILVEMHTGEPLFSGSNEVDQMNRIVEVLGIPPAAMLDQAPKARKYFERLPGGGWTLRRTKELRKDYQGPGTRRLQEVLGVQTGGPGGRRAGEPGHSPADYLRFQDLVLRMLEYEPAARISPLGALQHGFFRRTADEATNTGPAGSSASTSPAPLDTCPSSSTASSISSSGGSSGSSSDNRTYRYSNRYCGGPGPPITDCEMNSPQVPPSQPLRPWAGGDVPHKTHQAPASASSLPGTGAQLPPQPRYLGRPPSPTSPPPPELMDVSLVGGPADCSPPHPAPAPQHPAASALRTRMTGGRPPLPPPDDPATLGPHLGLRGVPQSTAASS

Human DYRK1A Kinase = Human DYRK1A Kinase (Homo sapiens, UniProt Q13627); assay: ADP-Glo DYRK1A kinase enzyme inhibition assay; conditions: for IC50: read-out: IC50 (nM) DYRK1A, ATP (10 μmol/well) and DYRKtidE (4 μmol/well) as substrate, triplicate
[2] = test system: LPS-induced NO production in BV2 microglial cells; assay: LPS-induced nitrite (NO) production, Griess reaction; type: cell-based, mouse; conditions: for dose-dependent inhibition of LPS-induced NO production: decreasing concentrations (Figures S17, S18); for LPS-induced NO production: maximum dose 5 μM (1, 5, 8, 9) or 10 μM (6, 7, 10, 11), LPS 24 h, 1 h pretreatment
Description: as §1
The assessment of NO production involved quantifying nitrite levels, one of the end products of NO oxidation, through a procedure based on the diazotization of nitrite by sulfanilic acid (Griess reaction). Upon reaching semiconfluence, cells were exposed to 400 ng/mL of LPS for 24 h. Before this, certain cultures were pretreated with various compounds at concentrations ranging from 0.5 to 10 μM. Following a 24-h incubation period, 50 μL aliquots of the samples were combined with 50 μL of Griess reagent in 96-well plates, and the mixture was allowed to incubate at room temperature for 10 min. The absorbance of the resulting mixture was then measured at 520 nm using a microplate reader.

[3] = phosphate buffer pH 7.4, fluorescein/AAPH

SMILES: Clc1cc(Cl)cc(-c2c[nH]c3ncc(-c4cnn(C5CCNCC5)c4)cc23)c1 [Compound 10, 3-(3,5-Dichlorophenyl)-5-(1-(piperidin-4-yl)-1H-pyrazol-4-yl)-1H-pyrrolo[2,3-b]pyridine]
ability to cross the blood–brain barrier by passive permeation (PAMPA-BBB assay; PAMPA): in the limit of a positive prediction | BBB prediction (PAMPA-BBB assay): CNS+/– (Compounds that correlate with reported P e values between 2 and 4 × 10^–6 cm s^–1 are classified as CNS+/–) | ORAC [1]: 0.55 ± 0.07 | ORAC values [1]: around 0.5 trolox equivalents | ORAC [1, 3]: 0.55 ± 0.07 μmol of trolox equivalents/μmol of tested compound | toxicity (MTT assay) (BV2 microglial cells; concentrations up to 10 μM): nontoxic | IC50 (DYRK1B): 566 ± 61 nM | IC50 (Human DYRK1A Kinase): 450 ± 18 nM

SMILES: COc1cccc(-c2c[nH]c3ncc(-c4cnn(C5CCN(C)CC5)c4)cc23)c1 [Compound 5, 3-(3-Methoxyphenyl)-5-(1-(1-methylpiperidin-4-yl)-1H-pyrazol-4-yl)-1H-pyrro-lo[2,3-b]pyridine]
BBB prediction (PAMPA-BBB assay): CNS+ (CNS+, correlating with a bibliographic P e > 4) | ORAC [1]: 1.25 ± 0.07 | ORAC [1, 3]: 1.25 ± 0.07 μmol of trolox equivalents/μmol of tested compound | toxicity (MTT assay) (BV2 microglial cells; at 5 μM): nontoxic | toxicity (MTT assay) (BV2 microglial cells; at 10 μM): exhibited toxicity | dose-dependent inhibition of LPS-induced NO production [2]: particularly strong | IC50 (DYRK1B): 119 ± 11 nM | DYRK1A activity / IC50 values (Human DYRK1A Kinase): comparable to the reference compound, harmine | IC50 (Human DYRK1A Kinase): 79 ± 5 nM

SMILES: CN1CCC(n2cc(-c3cnc4[nH]cc(-c5cc(Cl)cc(Cl)c5)c4c3)cn2)CC1 [Compound 6, 3-(3,5-Dichlorophenyl)-5-(1-(1-methylpiperidin-4-yl)-1H-pyrazol-4-yl)-1H-py-rrolo[2,3-b]pyridine]
BBB prediction (PAMPA-BBB assay): CNS+ (CNS+, correlating with a bibliographic P e > 4) | ORAC values [1]: around 0.5 trolox equivalents | toxicity (MTT assay) (BV2 microglial cells; concentrations up to 10 μM): nontoxic | IC50 (DYRK1B): 577 ± 49 nM

SMILES: COc1cc(-c2c[nH]c3ncc(-c4cnn(C5CCN(C)CC5)c4)cc23)c(F)cc1C [Compound 7, 3-(2-Fluoro-5-methoxy-4-methylphenyl)-5-(1-(1-methylpiperidin-4-yl)-1H-py-razol-4-yl)-1H-pyrrolo[2,3-b]pyridine]
BBB prediction (PAMPA-BBB assay): CNS+ (CNS+, correlating with a bibliographic P e > 4) | ORAC [1]: 1.3 ± 0.1 | ORAC [1, 3]: 1.3 ± 0.1 μmol of trolox equivalents/μmol of tested compound | toxicity (MTT assay) (BV2 microglial cells; concentrations up to 10 μM): nontoxic | IC50 (DYRK1B): 174 ± 31 nM

SMILES: COc1cc(-c2c[nH]c3ncc(-c4cnn(C5CCNCC5)c4)cc23)c(F)cc1C [Compound 11, 3-(2-Fluoro-5-methoxy-4-methylphenyl)-5-(1-(piperidin-4-yl)-1H-pyrazol-4-yl)-1H-pyrrolo[2,3-b]pyridine]
BBB prediction (PAMPA-BBB assay): CNS+ (CNS+, correlating with a bibliographic P e > 4) | ORAC [1]: 1.20 ± 0.1 | ORAC [1, 3]: 1.2 ± 0.1 μmol of trolox equivalents/μmol of tested compound | toxicity (MTT assay) (BV2 microglial cells; concentrations up to 10 μM): nontoxic | IC50 (DYRK1B): 165 ± 30 nM | IC50 (Human DYRK1A Kinase): 165 ± 17 nM

Stronger by IC50 (DYRK1B), values ahead:

IC50 (DYRK1B): 109 ± 8 nM | IC50 (Human DYRK1A Kinase): 81 ± 4 nM
SMILES: COc1cccc(-c2c[nH]c3ncc(-c4cnn(C5CCNCC5)c4)cc23)c1 [Compound 9, 3-(3-Methoxyphenyl)-5-(1-(piperidin-4-yl)-1H-pyrazol-4-yl)-1H-pyrrolo[2,3-b]pyridine]
BBB prediction (PAMPA-BBB assay): CNS+ (CNS+, correlating with a bibliographic P e > 4) | ORAC [1]: 1.3 ± 0.1 | ORAC [1, 3]: 1.3 ± 0.1 μmol of trolox equivalents/μmol of tested compound | toxicity (MTT assay) (BV2 microglial cells; at 5 μM): nontoxic | toxicity (MTT assay) (BV2 microglial cells; at 10 μM): exhibited toxicity | dose-dependent inhibition of LPS-induced NO production [2]: particularly strong | DYRK1A activity / IC50 values (Human DYRK1A Kinase): comparable to the reference compound, harmine

IC50 (DYRK1B): 78 ± 3 nM | IC50 (Human DYRK1A Kinase): 41 ± 3 nM
SMILES: CN1CCC(n2cc(-c3cnc4[nH]cc(-c5cccc(F)c5)c4c3)cn2)CC1 [Compound 1, 3-(3-fluorophenyl)-5-(1-(1-methylpiperidin-4-yl)-1H-pyrazol-4-yl)-1H-pyrrolo[2,3-b]pyridine]
BBB prediction (PAMPA-BBB assay): CNS+ (CNS+, correlating with a bibliographic P e > 4) | ORAC [1]: 1.02 ± 0.03 | ORAC [1, 3]: 1.02 ± 0.03 μmol of trolox equivalents/μmol of tested compound | toxicity (MTT assay) (BV2 microglial cells; at 5 μM): nontoxic | toxicity (MTT assay) (BV2 microglial cells; at 10 μM): exhibited toxicity | dose-dependent inhibition of LPS-induced NO production [2]: particularly strong | LPS-induced NO production [2]: most pronounced effects | DYRK1A activity / IC50 values (Human DYRK1A Kinase): activity at the nanomolar level; also recorded: comparable to the reference compound, harmine

IC50 (DYRK1B): 70 ± 5 nM | IC50 (Human DYRK1A Kinase): 48 ± 3 nM
SMILES: Fc1cccc(-c2c[nH]c3ncc(-c4cnn(C5CCNCC5)c4)cc23)c1 [Compound 8, 3-(3-Fluorophenyl)-5-(1-(piperidin-4-yl)-1H-pyrazol-4-yl)-1H-pyrrolo[2,3-b]py-ridine]
BBB prediction (PAMPA-BBB assay): CNS+ (CNS+, correlating with a bibliographic P e > 4) | ORAC [1]: 1.0 ± 0.1 | ORAC [1, 3]: 1.0 ± 0.1 μmol of trolox equivalents/μmol of tested compound | toxicity (MTT assay) (BV2 microglial cells; at 5 μM): nontoxic | toxicity (MTT assay) (BV2 microglial cells; at 10 μM): exhibited toxicity | dose-dependent inhibition of LPS-induced NO production [2]: particularly strong | LPS-induced NO production [2]: most pronounced effects | DYRK1A activity / IC50 values (Human DYRK1A Kinase): comparable to the reference compound, harmine
